# According to US20220387368A1, “AN INHIBITOR OF AN IRON-CONTAINING HYDROGENASE OF A METHANOGENIC ARCHAEON FOR USE IN THE TREATMENT OR PREVENTION OF A PARKINSONIAN CONDITION” (UNIVERSITE DU LUXEMBOURG, priority 2019, published 2022):
# Legend:
# rats = settings: oral administration; cited from earlier work
# control strain = assay: Yeast growth toxicity assay, control strain; assay type: cell-based
# Method: (§1) Yeast cells were grown in synthetic complement (SC) media containing 6.7 g/L yeast nitrogen base without amino acids, 5 g/L ammonium sulfate supplemented with 2 g/L SC. Media was autoclaved and the carbon source (8% raffinose or galactose) was added to a final concentration of 2%.
# (§2) Four fresh single colonies of the Hitox strain and its respective control strain were inoculated from SC-2% glucose plates into 5 mL SC-2% raffinose and incubated overnight with shaking (200 rpm) at 30° C. After ≈20 h, overnight cultures were diluted to OD 0.5 and 2 μL of the yeast cultivation was added to 78 μL drug containing media to a final optical density of 0.0125 in a 384-well microplate. 2-HP was diluted in SC-2% raffinose/galactose and tested at different concentrations (1-100 mM). Finally, the plates are measured in a microplate reader (TECAN™ Infinite M200Pro), at an interval of 10 minutes during 72 h at 30° C. Yeast growth phenotyping was performed as previous described (Jung et al. 2015). Final biomass was corrected using the GATHODE software (Jung et al., 2015). The OD600 at 48 h was taken for the quantification.
# wildtype mice = assay: Adhesive removal test after injection into the brain; assay type: in vivo; settings: higher 2-HP concentrations, 15 days post-injection, vs PBS
# Method: The in vivo work testing for effects of 2-HP in a mouse model lead to results from a small-scale 15-day experiment. In this experiment, 2-HP was injected at several concentrations (5, 50 and 100 mM) into the brain of transgenic mice overexpressing human alpha-synuclein, and of wildtype control mice.
# IL-1b mRNA expression = IL-1b mRNA expression (qPCR) in murine BMDM model; assay type: cell-based; settings: 10 mM 2-HP, normalized to β-actin, relative to 0 mM
# Method: The inventors have tested whether 2-HP can act as signal 1 in the activation of the NLRP3 inflammasome in murine bone-barrow derived macrophages (BMDMs). NLRP3 inflammasome activation is thought to play a role in the pathogenesis of neurodegenerative disorders, and increased levels of this inflammasome and of the related cytokine IL-1b have been detected in Parkinson's patients (Guan & Han, 2020). In these experiments, the cells were grown in BMDM growth media and treated with 2-hydroxypyridine (2.5 and 10 mM) for up to 72 hours. Inflammasome activation was evaluated with qPCR for IL-1b expression (normalized to β-actin), considering the fold change relative to 0 mM 2-HP of each time point. There was a 3.2-fold increase in IL-1b mRNA after 3 hours of 10 mM 2-HP treatment, and 1.5-fold increase after 24 hours (FIG. 8).
# alpha-synuclein = biological target: T1, alpha-synuclein (Homo sapiens, UniProt P37840); assay: Alpha-synuclein aggregation; settings: in contact with alpha-synuclein
# T1 construct: expressed in transfected cells; host or cells: HiTox yeast strains, galactose-inducible expression
# Method: The aggregation of alpha-synuclein is the key molecular hallmark of PD.
# The following abbreviations have the meaning given in brackets: α-Syn (alpha-synuclein), α-Syn-F (fibrillary alpha-synuclein, i.e. alpha-synuclein aggregations), Hoechst (DNA staining), TUJ1 (general neuronal marker), TH (tyrosine hydroxylase) and CC3 (cleaved caspase 3 staining, i.e. cell death marker, showing toxicity).
# Cells fixed in 4% paraformaldehyde (Merck Millipore, 1004965000) for 15 min at RT and then washed 3× for 5 min with PBS at RT. Prior to immunostaining, a permeabilization step was performed using 0.05% Triton-X100 solution in PBS for 10 min at 4° C. Cells were then blocked for 1 h at RT with 10% FBS in PBS. Incubation with α-synuclein antibody (NOVUS biologicals, NBP1-05194, 1:1000), α-synuclein filament antibody (Abcam, ab20953, 1:5000) and TUJ1 (Millipore, AB9354, 1:600) was done overnight at 4° C. in blocking buffer. The following day, cells were washed with PBS 3× for 5 min at RT. Then, incubation with the corresponding secondary antibodies, Alexa Fluor anti-chicken 488 (Invitrogen, A-11039, 1:1000), Alexa Fluor anti-mouse IgG1 647 (Invitrogen, A-21240, 1:1000) and Alexa Fluor anti-rabbit 568 (Invitrogen, A11036, 1:1000) was performed for 2 h at RT in blocking buffer. Hoechst 33342 solution (Invitrogen, 62249, 1:1000) was added during this step to stain the nuclei. […]
# [1] = tested on: HiTox strains of yeast expressing human alpha-synuclein; assay: Yeast growth toxicity assay, HiTox strain; assay type: cell-based
# Method: as §1, §2
# [2] = tested on: transgenic mice (Thy1-Syn14 males); settings: mouse, in vivo
# Method: Newly formed oligomeric forms are then propagated to the CNS via the vagus nerve.
# To control toxicity and set an upper threshold level for the chronic exposure study, the ideal concentration in the animals' drinking water (ad libitum) is determined by testing three different concentrations. As reference, the LD50 value determined in rats is used as a threshold for an entire day. The animals, of an average weight of 28 g, take in […] of 2-HP per day. The second factor to account for is the volume of water a C57BI6/j mouse drinks per day, which varies between 5 mL and 8 mL. With an […] water intake per day, the maximum concentration the inventors use is 695 μg/mL of dissolved 2-HP. However, lower doses are aimed for:
# These 3 doses are tested on a total of 48 animals. 24 wild-type and 24 transgenic animals are distributed amongst 12 groups. It is essential to have both genotypes in the study, since it cannot be foreseen how human wild-type alpha-synuclein and 2-HP interact in an in vivo model. Further, short-term and long-term effects are analysed. Additionally, this allows to proceed with the post-mortem analysis of the 14 days cohort, allowing to gather information of the early effects of 2-HP on an in vivo system. The following design is used:
# In the in-life phase, all animals are checked regularly. Overall behavior in the cage is checked daily. […]
# enteric neurons = assay: Enteric neuron cell viability (MTT) assay; assay type: cell-based; settings: 24 h treatment, MTT (FIG. 5)
# Method: Enteric neurons were cultured in differentiation medium, consisting on Neurobasal (Invitrogen, 21103049) supplemented with 1:200 N2 (Invitrogen, 17502048), 1:100 L-Glutamine (Invitrogen, 25030-024), 1:100 B-27 without Vitamin A (Life Technologies, 12587-010), 1:100 Penicillin/Streptomycin (Invitrogen, 15140122), 25 ng/mL GDNF (Peprotech, 450-10) and 100 μM Ascorbic Acid (Sigma, A5960). Cells were cultured for 21 days in a 6-well plate, then detached with Accutase (Sigma, A6964), and replated into a 96-well plate. Cells were maintained under differentiating conditions until day 31, when they were treated with increasing concentrations of 2-hydroxypyridine (Sigma, H56800). Tested concentrations were as follows: 1 μM, 3 μM, 6 μM, 10 μM, 30 μM, 60 μM, 100 μM, 300 μM, 600 μM, 1 mM and 3 mM.
# 2-Hydroxypyridine was reconstituted to 10 mM in the differentiation medium described above.
# Cells were treated for 24 h, then cell viability was assessed performing a Tetrazolium (MTT) assay. Thiazolyl Blue tetrazolium Bromide (Sigma, M5655) was reconstituted to a 5 mg/mL solution in differentiation media and filtered. 10 μL of the solution were then added to every well containing 100 μL of media. Plate was incubated for 2 h in a normal incubator (37° C., 5% CO2). […] Cells were disaggregated by pipetting vigorously and absorbance was read at 570 nm, using the microplate Cytation 5M reader (Biotek).
# [3] = control, higher concentration of 2-HP (FIG. 3C)
structure (smiles),measurement,setting,value
"Oc1ccccn1 [2-HP, 2-hydroxypyridine]",LD50,rats,124 mg/kg
same,lag time of growth curve,control strain; [3],prolonged
same,yield of growth curve,control strain; [3],unaffected
same,"toxicity (growth), control strain","control strain; in presence of galactose, control strain (FIG. 3B)",not in the control strain
same,performance in adhesive removal test (sensorimotor function),wildtype mice,perform worse
same,increase in IL-1b mRNA,IL-1b mRNA expression; 3 hours,3.2 fold
same,increase in IL-1b mRNA,IL-1b mRNA expression; 24 hours,1.5 fold
same,effect on alpha-synuclein aggregation,alpha-synuclein,promotes aggregation
same,dose at which selectively toxic to transgenic alpha-synuclein expressing yeast,[1]; HiTox strains of yeast expressing human alpha-synuclein,1 mM
same,"toxicity (growth), alpha-synuclein induced","[1]; in presence of galactose, HiTox strains (FIG. 3B)",A toxic dose-response can be observed in the HiTox strains
same,"toxicity (growth), alpha-synuclein not induced",[1]; in presence of raffinose (FIG. 3A),A toxic dose-response can be observed
same,alpha-synuclein in ENS,[2],increased accumulation up to aggregation of alpha-synuclein
same,motor symptoms and PD-like pathology,[2],exacerbation of motor symptoms
same,LD50,enteric neurons,around 3 mM
